Measured values as given in patent US10851069B2, “Compositions of crystallized hydrophobic compounds and methods of making and using same” (Massachusetts Institute of Technology, priority 2016, dated 2020).

System: rat Pdx1
Test: qPCR of explanted capsules, rat islet function/viability marker
Format: in vivo
Conditions: explanted at approximately 430 (amorphous) or 460 (crystalline) days post-transplant
Source text: Total RNA was isolated from fibrosed spheres (with adhered tissue and immune overgrowth, if present), liquid nitrogen snap-frozen immediately following excision, using TRIzol (Invitrogen, Carlsbad, Calif.) according to the manufacturer's instructions. In addition, to help ensure complete tissue disruption, we also employed strong mechanical disruption with a Polytron homogenizer. Thus, gene expression signatures shown throughout are proportional and representative of the entire cell population present on and/or around retrieved materials. […] Mouse (5′-[…]-3′ (SEQ. ID. No.:1); reverse: 5′-CGGGTTCCGCTGTGTAAG-3′ (SEQ. ID. No.:2)) and rat (5′-CTCTCGTGCCATGTGAACC-3′ (SEQ. ID. No.:3); reverse: 5′-[…]-3′ (SEQ. ID. No.:4)) Pdx1 primers were designed using Primer Express software (Applied Biosystems, Carlsbad, Calif., USA) and evaluated using LaserGene software (DNAStar, Madison, Wis., USA) to ensure species rat (encapsulated islet) or mouse (host)-specificity, and normalized to mouse (5′-[…]-3′ (SEQ. ID. No.:5); reverse: 5′-[…]-3′ (SEQ. ID. No.:6)) and rat (5′-[…]-3′ (SEQ. ID. No.:7); reverse: 5′-[…]-3′ (SEQ. ID. No.:8)) Beta-actin, respectively. […] Results were analyzed using the comparative CT (ΔΔCT) method as described by the manufacturer. […]

COc1ccc(COc2ccc(Cc3cnc(N)nc3N)cc2OC)cc1 [GW2580, 5-[[3-Methoxy-4-[(4-methoxyphenyl)methoxy]phenyl]methyl]-2,4-pyrimidinediamine]
Pdx1 expression, crystal versus amorphous capsules: approximately 30 fold
